Source: patent US7754677B2, “Composition and method for reducing diarrhea in a mammal” (Hill's Pet Nutrition, Inc., priority 2003, dated 2010)

Legend:
[1] = Postprandial plasma glutamine dose response study in dogs; type: in vivo
Method: In one experiment, a source of glutamine was tested to see if it was bioavailable and able to deliver adequate glutamine to the intestinal cells. The source of glutamine was a wheat hydrolysate with an enrichment of 30% glutamine. A dose response study was carried out in 6 dogs to see if increasing levels of the glutamine source (0, 0.5, 1.0, 2% glutamine content) was detected in the plasma after feeding the diet.

T cell lymphocyte = test: T-cell proliferation assay in response to ConA mitogen, blood of dogs fed glutamine supplemented diet; type: in vivo, Beagle dogs; conditions: for T cell proliferation (log10 cpm): ConA mitogen, data collapsed across ConA doses
Method: In a further experiment, the efficacy of glutamine as a immune-modulator was examined. 20 Beagle dogs were randomly allocated into 4 groups receiving either basic diet or basic diet supplemented with 1%, 2%, or 4% glutamine. Blood samples were drawn in heparinized tubes from animals 2 hrs after their last feeding on day 1 and 16. Samples were prepared for immune measurement. (T cell proliferation assay).
T-cell proliferation assay. Peripheral blood leukocytes (PBL) in each blood sample were counted using Nova Celltrak II (Beckman Coulter Corp., Fla.). Blood was diluted (1:20) with supplemented media. Diluted blood was plated, in triplicate, in 96 well cell culture plates with the following mitogens diluted in supplemented media: Concanavalin A (0.5 μg/ml, 2.5 μg/ml. Plates were incubated in a humidified incubator containing 7% CO2 at 37° C. for 72 hrs. Cellular DNA was […]. Cellular DNA was harvested on glass fiber paper using a cell harvester (Skatron Instruments Inc., Va.) and suspended with 1.5 ml scintillation cocktail. [^3H]thymidine uptake was quantified as counts per minutes (CPM) using TriCarb 2100TR Liquid Scintillation Analyzer (Packard BioScience Company, Ill.). Counts were normalized to CPM/10,000 cells to account for variation in PBL concentrations.
Concanvalin A (Con A) is a polyclonal T-cell mitogen. […] Thus, the data were collapsed across the different doses of Con A to show the proliferative response of lymphocytes dependent on percentage of glutamine supplemented in the diet.

- % Change in plasma glutamine from control ([1]; 0.5% supplemented glutamine in food): 3%
- % Change in plasma glutamine from control ([1]; 1.0% supplemented glutamine in food): 10%
- % Change in plasma glutamine from control ([1]; 2.0% supplemented glutamine in food): 15%
SMILES: NC(=O)CC[C@H](N)C(=O)O [glutamine]
- Lymphocyte proliferation, result in words (T cell lymphocyte; 1% glutamine in diet, versus control group P<0.05): maximum lymphocyte proliferation
- T cell proliferation (log10 cpm) (T cell lymphocyte; 1% supplemental glutamine in diet): 5 log10 cpm
- T-lymphocytes proliferation, result in words (T cell lymphocyte; 1-2% glutamine in diet): enhances overall T-lymphocytes proliferation
- T cell proliferation (log10 cpm) (T cell lymphocyte; 2% supplemental glutamine in diet): 4.8 log10 cpm
- T-lymphocytes proliferation, result in words (T cell lymphocyte; 4% glutamine in diet): not additionally beneficial
- T cell proliferation (log10 cpm) (T cell lymphocyte; 4% supplemental glutamine in diet): 4.5 log10 cpm
